Assays:
Assay in all cases: Enzymatic activity of PI3K isoforms, TR-FRET assay (PIP3 formation)
Assay type in all cases: biochemical
PI3Kγ = PI3Kγ (Homo sapiens (Human), UniProt P48736)
How it was run: (§1)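 Recombinant heterodimeric class I PI3K enzymes were assayed by TR-FRET. PIP3 product displaces fluorescently labelled PIP3 from the GRP-1 PH domain, lowering the signal; IC50 values are given in nM.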

PI3Kβ = PI3Kβ (Homo sapiens (Human), UniProt P42338)
How it was run: as §1

PI3Kδ = PI3Kδ (Homo sapiens (Human), UniProt O00329); settings: bound given in nM
How it was run: (§2)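 Heterodimeric recombinant class I PI3K; PIP3 product displaces labeled PIP3 from GRP-1 PH domain, lowering TR-FRET. Reaction 30 min at 25° C, stopped with 10 mM EDTA, 10 nM labeled-PIP3, 35 nM Eu-GRP-1. Read Ex 340 nm, Em 615/665 nm; IC50 in nM.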

PI3Kα = PI3Kα (Homo sapiens (Human), UniProt P42336)
How it was run: as §2

Chain of PI3Kβ (P42338 whole entry): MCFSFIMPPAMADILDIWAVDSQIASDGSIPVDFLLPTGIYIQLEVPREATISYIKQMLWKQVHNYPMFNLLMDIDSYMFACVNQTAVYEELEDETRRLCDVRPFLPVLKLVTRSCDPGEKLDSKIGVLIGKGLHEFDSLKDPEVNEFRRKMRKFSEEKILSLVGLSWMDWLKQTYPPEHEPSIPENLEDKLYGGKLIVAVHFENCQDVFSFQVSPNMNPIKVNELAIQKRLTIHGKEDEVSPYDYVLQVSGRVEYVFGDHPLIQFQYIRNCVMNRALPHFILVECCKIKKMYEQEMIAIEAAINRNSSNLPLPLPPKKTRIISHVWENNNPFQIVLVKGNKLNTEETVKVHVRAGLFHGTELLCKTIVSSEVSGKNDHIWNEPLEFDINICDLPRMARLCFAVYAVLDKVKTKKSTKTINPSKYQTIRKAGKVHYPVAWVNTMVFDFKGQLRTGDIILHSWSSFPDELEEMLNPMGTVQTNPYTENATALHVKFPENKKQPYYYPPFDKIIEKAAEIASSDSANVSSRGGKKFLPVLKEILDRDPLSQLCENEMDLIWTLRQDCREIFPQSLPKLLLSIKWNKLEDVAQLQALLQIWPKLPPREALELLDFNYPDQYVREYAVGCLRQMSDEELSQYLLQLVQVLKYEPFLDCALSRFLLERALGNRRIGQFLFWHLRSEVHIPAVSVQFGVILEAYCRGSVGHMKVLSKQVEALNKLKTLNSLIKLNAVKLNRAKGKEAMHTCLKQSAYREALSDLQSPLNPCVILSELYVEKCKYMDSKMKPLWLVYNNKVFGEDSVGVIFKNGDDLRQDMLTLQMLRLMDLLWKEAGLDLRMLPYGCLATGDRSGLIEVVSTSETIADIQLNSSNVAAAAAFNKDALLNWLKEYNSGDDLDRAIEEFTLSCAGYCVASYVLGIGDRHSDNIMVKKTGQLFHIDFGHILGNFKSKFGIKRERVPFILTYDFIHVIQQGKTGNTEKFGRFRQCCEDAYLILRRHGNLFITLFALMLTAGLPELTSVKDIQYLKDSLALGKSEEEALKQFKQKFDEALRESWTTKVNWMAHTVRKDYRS
Chain of PI3Kβ (P27986 whole entry partner): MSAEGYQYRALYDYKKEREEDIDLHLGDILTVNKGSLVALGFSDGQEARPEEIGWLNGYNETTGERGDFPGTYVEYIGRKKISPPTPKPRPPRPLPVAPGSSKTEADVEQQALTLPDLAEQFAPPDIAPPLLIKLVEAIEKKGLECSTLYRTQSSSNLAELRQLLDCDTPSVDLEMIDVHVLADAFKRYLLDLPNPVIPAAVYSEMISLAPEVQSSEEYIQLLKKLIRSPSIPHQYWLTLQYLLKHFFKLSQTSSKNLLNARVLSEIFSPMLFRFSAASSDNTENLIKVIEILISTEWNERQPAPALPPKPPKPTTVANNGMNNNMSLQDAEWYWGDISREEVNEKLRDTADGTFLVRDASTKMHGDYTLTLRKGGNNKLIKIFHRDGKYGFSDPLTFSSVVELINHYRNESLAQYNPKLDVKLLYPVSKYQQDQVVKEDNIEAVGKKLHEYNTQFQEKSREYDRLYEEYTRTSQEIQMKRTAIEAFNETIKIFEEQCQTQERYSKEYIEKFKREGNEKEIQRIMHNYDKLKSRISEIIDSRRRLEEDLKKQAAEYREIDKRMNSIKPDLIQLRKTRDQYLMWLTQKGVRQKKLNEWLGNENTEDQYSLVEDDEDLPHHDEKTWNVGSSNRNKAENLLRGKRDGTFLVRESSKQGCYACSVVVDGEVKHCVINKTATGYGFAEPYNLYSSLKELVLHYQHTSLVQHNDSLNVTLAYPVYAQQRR
Chain of PI3Kα (P42336 whole entry): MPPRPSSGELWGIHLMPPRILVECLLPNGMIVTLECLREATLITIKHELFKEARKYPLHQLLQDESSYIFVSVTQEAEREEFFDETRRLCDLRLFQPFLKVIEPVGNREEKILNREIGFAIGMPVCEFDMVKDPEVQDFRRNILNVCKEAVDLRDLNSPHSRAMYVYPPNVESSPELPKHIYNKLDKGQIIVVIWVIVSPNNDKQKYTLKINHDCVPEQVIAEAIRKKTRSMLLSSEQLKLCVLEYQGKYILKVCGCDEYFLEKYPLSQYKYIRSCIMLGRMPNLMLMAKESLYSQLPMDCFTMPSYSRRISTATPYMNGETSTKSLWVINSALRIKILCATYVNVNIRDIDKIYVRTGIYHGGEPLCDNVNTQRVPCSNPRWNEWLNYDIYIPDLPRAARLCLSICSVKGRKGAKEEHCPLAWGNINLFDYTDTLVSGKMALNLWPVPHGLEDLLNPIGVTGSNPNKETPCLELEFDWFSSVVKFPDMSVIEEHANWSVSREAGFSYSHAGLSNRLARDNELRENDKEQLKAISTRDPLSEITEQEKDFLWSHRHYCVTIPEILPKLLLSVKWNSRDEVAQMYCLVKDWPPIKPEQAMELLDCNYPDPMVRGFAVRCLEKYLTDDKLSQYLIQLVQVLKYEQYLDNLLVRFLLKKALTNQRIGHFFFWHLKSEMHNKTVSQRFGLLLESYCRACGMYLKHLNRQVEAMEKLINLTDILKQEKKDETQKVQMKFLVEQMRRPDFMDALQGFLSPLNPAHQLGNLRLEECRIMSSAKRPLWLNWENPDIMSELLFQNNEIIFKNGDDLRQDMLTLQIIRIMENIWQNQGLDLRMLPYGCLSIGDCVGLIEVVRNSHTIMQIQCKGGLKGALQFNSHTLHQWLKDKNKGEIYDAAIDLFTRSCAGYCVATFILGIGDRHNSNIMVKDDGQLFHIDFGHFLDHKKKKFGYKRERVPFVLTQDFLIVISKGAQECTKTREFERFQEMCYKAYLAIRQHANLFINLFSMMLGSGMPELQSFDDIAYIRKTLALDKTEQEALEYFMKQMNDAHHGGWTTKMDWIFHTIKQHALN
Chain of PI3Kα (P27986 whole entry partner): as the sequence (P27986 whole entry partner) above
Chain of PI3Kδ (O00329 whole entry, the tested form may be a part): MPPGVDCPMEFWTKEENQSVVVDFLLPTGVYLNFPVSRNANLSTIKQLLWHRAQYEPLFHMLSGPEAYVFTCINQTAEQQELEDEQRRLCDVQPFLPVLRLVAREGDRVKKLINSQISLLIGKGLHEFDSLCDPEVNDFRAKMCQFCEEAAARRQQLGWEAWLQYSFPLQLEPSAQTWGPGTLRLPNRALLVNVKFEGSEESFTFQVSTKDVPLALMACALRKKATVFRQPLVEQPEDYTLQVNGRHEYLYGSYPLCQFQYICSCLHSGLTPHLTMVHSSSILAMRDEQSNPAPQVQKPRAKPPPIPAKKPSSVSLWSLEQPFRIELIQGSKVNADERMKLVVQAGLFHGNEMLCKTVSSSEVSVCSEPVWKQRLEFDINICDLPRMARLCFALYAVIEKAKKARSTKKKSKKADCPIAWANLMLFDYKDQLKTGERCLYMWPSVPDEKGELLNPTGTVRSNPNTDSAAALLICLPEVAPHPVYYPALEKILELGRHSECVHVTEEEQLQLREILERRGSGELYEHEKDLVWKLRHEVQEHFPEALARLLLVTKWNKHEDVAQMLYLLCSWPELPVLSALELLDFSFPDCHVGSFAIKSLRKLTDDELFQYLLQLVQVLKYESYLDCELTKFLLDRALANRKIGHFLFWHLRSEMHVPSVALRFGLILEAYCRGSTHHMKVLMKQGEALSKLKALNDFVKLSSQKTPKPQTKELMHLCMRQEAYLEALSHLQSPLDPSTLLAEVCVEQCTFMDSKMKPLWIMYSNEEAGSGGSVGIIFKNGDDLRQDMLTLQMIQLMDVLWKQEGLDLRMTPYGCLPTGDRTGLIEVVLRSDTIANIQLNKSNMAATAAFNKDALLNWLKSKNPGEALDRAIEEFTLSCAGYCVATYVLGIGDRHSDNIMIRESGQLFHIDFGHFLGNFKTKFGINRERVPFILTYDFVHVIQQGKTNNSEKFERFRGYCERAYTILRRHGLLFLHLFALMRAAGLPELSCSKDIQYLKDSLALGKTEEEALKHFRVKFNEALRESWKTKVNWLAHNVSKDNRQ
Chain of PI3Kδ (P27986 whole entry partner, the tested form may be a part): as the sequence (P27986 whole entry partner) above

With `C[C@H](Nc1ncnc(N)c1C#Cc1ccc(F)cn1)c1nc2ccc(F)cc2c(=O)n1-c1cccc(Cl)c1` [Compound 96a, (S)-2-(1-((6-amino-5-((5-fluoropyridin-2-yl)ethynyl)pyrimidin-4-yl)amino)ethyl)-3-(3-chlorophenyl)-6-fluoroquinazolin-4(3H)-one] the IC50 (PI3Kγ; bound given in uM) was greater than 1 µM, the IC50 (PI3Kβ; bound given in uM) was greater than 1 µM and the IC50 (PI3Kδ) was less than 100 nM. It also gave an IC50 (PI3Kα; bound given in uM) greater than 1 µM.
`CCCCc1cccc(-n2c([C@H](C)Nc3ncnc(N)c3C#Cc3ccc(F)cn3)nc3cccc(Cl)c3c2=O)c1` [Compound 57a, (S)-2-(1-((6-amino-5-((5-fluoropyridin-2-yl)ethynyl)pyrimidin-4-yl)amino)ethyl)-3-(3-butylphenyl)-5-chloroquinazolin-4(3H)-one] was tested, and the IC50 (PI3Kγ; bound given in uM) was greater than 1 µM, the IC50 (PI3Kβ; bound given in uM) was greater than 1 µM and the IC50 (PI3Kδ) was less than 100 nM. It also gave an IC50 (PI3Kα; bound given in uM) greater than 1 µM.
`CCc1cccc(-n2c([C@H](C)Nc3ncnc(N)c3C#Cc3ccc(F)cn3)nc3cccc(Cl)c3c2=O)c1` [Compound 61a, (S)-2-(1-((6-amino-5-((5-fluoropyridin-2-yl)ethynyl)pyrimidin-4-yl)amino)ethyl)-5-chloro-3-(3-ethylphenyl)quinazolin-4(3H)-one] was tested, and the IC50 (PI3Kγ; bound given in uM) was greater than 1 µM, the IC50 (PI3Kβ; bound given in uM) was greater than 1 µM and the IC50 (PI3Kδ) was less than 100 nM. The IC50 (PI3Kα; bound given in uM) was greater than 1 µM.
With `C[C@H](Nc1ncnc(N)c1C#Cc1ccc(C(=O)O)cn1)c1nc2cccc(Cl)c2c(=O)n1-c1ccccc1` [Compound 138a, (S)-6-((4-amino-6-((1-(5-chloro-4-oxo-3-phenyl-3,4-dihydroquinazolin-2-yl)ethyl)amino)pyrimidin-5-yl)ethynyl)nicotinic acid] the IC50 (PI3Kγ; bound given in uM) was greater than 1 µM, the IC50 (PI3Kβ; bound given in uM) was greater than 1 µM and the IC50 (PI3Kδ) was less than 100 nM. The IC50 (PI3Kα; bound given in uM) was greater than 1 µM.
`CC(=O)c1cccc(C#Cc2c(N)ncnc2N[C@@H](C)c2nc3cccc(Cl)c3c(=O)n2-c2ccccc2)c1` [Compound 161a, (S)-2-(1-((5-((3-acetylphenyl)ethynyl)-6-aminopyrimidin-4-yl)amino)ethyl)-5-chloro-3-phenylquinazolin-4(3H)-one] showed an IC50 (PI3Kγ; bound given in nM) of less than 0.1 µM, an IC50 (PI3Kβ; bound given in nM) of less than 0.1 µM and an IC50 (PI3Kδ) of less than 100 nM. The IC50 (PI3Kα; bound given in nM) was less than 0.1 µM.
Molecule `C[C@H](Nc1ncnc(N)c1C#Cc1ncccn1)c1nc2cccc(Cl)c2c(=O)n1-c1cc(F)cc(F)c1` [Compound 103a, (S)-2-(1-((6-amino-5-(pyrimidin-2-ylethynyl)pyrimidin-4-yl)amino)ethyl)-5-chloro-3-(3,5-difluorophenyl)quinazolin-4(3H)-one] has an IC50 (PI3Kγ; bound given in uM) greater than 1 µM, an IC50 (PI3Kβ; bound given in uM) greater than 1 µM and an IC50 (PI3Kδ) of less than 100 nM. For the same molecule, the IC50 (PI3Kα; bound given in uM) was greater than 1 µM.
`C[C@H](Nc1ncnc(N)c1C#Cc1cccc(N)n1)c1nc2cccc(Cl)c2c(=O)n1-c1ccccc1` [Compound 31a, (S)-2-(1-(6-amino-5-((6-aminopyridin-2-yl)ethynyl)pyrimidin-4-ylamino)ethyl)-5-chloro-3-phenylquinazolin-4(3H)-one] gave an IC50 (PI3Kγ; bound given in nM) of less than 0.1 µM, an IC50 (PI3Kβ; bound given in nM) of less than 0.1 µM and an IC50 (PI3Kδ) of less than 100 nM. For the same molecule, the IC50 (PI3Kα; bound given in nM) was less than 0.1 µM.
`C[C@H](Nc1ncnc(N)c1C#Cc1cnccn1)c1nc2cccc(F)c2c(=O)n1-c1cccc(F)c1` [Compound 101a, (S)-2-(1-((6-amino-5-(pyrazin-2-ylethynyl)pyrimidin-4-yl)amino)ethyl)-5-fluoro-3-(3-fluorophenyl)quinazolin-4(3H)-one] was tested, and the IC50 (PI3Kγ; bound given in uM) was greater than 1 µM, the IC50 (PI3Kβ; bound given in uM) was greater than 1 µM and the IC50 (PI3Kδ) was less than 100 nM. The IC50 (PI3Kα; bound given in uM) was greater than 1 µM.
Molecule `C[C@H](Nc1ncnc(N)c1C#Cc1ccc(F)cn1)c1nc2cccc(Cl)c2c(=O)n1-c1cc(F)cc(F)c1` (single isomer, unassigned) [Compound 9a] has an IC50 (PI3Kγ; bound given in uM) greater than 1 µM, an IC50 (PI3Kβ; bound given in uM) greater than 1 µM and an IC50 (PI3Kδ) of less than 100 nM. It also gave an IC50 (PI3Kα; bound given in uM) greater than 1 µM.
`C[C@H](Nc1ncnc(N)c1C#Cc1ccc(F)cn1)c1nc2ccc(F)cc2c(=O)n1-c1ccccc1` [Compound 90a, (S)-2-(1-((6-amino-5-((5-fluoropyridin-2-yl)ethynyl)pyrimidin-4-yl)amino)ethyl)-6-fluoro-3-phenylquinazolin-4(3H)-one] showed an IC50 (PI3Kγ; bound given in uM) greater than 1 µM, an IC50 (PI3Kβ; bound given in uM) greater than 1 µM and an IC50 (PI3Kδ) of less than 100 nM. It also gave an IC50 (PI3Kα; bound given in uM) greater than 1 µM.

— patent US9266878B2, “Phosphatidylinositol 3-kinase inhibitors” (Gilead Calistoga LLC, priority 2012, dated 2016)
